The source of these data is ChEMBL document CHEMBL1123484 (J Med Chem, 1986).

One assay has as its system L1210. The experiment in a line: Compound was tested for its ability to inhibit growth of L1210 mouse leukemia cells. It counts as functional, cell-based.
For assay [1], the target named is T1, Folylpolyglutamate synthase, mitochondrial (Mus musculus) (UniProt P48760).
T1 sequence (whole entry): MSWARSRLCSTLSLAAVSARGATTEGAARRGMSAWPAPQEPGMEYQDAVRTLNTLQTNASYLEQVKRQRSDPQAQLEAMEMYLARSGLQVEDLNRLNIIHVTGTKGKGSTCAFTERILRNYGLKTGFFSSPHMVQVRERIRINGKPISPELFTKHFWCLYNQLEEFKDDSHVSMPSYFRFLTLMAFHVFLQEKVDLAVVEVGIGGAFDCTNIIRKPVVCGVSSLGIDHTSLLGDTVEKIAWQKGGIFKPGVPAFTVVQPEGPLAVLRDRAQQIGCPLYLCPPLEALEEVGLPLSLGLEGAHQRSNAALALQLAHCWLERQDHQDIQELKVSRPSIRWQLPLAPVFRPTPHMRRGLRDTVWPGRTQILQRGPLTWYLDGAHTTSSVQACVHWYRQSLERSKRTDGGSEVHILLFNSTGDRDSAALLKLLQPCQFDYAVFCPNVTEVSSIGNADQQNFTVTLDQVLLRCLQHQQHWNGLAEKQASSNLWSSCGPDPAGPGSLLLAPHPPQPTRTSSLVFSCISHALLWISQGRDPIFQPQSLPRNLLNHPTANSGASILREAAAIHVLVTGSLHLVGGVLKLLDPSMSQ
The experiment in a line: Compound (500 uM folate.

A further assay has as its system L1210 ( R81). In words: Compound was tested for its ability to inhibit growth of L1210/R81 cells. It is filed as functional, cell-based. Conditions: Mus musculus.
A further assay deals with T2, Dihydrofolate reductase (Mus musculus, UniProt P00375).
T2 sequence (P00375 whole entry): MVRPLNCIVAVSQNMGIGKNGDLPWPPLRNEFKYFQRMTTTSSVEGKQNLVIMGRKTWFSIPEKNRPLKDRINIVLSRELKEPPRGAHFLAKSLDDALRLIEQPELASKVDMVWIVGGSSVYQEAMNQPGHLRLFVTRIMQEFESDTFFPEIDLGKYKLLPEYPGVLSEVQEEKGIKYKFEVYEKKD
The experiment in a line: biochemical.

The target of assay [2] is T3, Folylpolyglutamate synthase, mitochondrial (Mus musculus, UniProt P48760).
T3 sequence (P48760 whole entry): T1 sequence (whole entry)
The experiment in a line: Compound was tested for its ability to inhibit Folyl-polyglutamate synthase from mouse liver.

Each structure is given as a SMILES string. A value given as a limit tells only on which side of the number the result lay.

What is called IC50 is the concentration needed to halve the response being measured. A high value points to a need for much substance. What is called inhibition is how much of the control response was suppressed. A high value points to a response far below the control. In general, Ki refers to a measure of affinity in units of concentration, obtained from inhibition or displacement.

Description for Dihydrofolate reductase: Compound was tested for its ability to inhibit purified dihydrofolate reductase(DHFR) from L1210/R81 cells

Consider `CN(Cc1cnc2nc(N)nc(N)c2n1)c1ccc(C(=O)NC(CCN)C(=O)O)cc1` (stereo unspecified), for which the IC50 stood at 2420 nM in the assay on L1210, 290000 nM with L1210 ( R81) and 120 nM at Dihydrofolate reductase. The molecule also showed an inhibition in assay [1] of under 10%.

Consider `CN(Cc1cnc2nc(N)nc(N)c2n1)c1ccc(C(=O)N[C@@H](CCC(=O)O)C(=O)O)cc1` [METHOTREXATE], for which, in the assay with L1210 ( R81), the IC50 was 220000 nM.

With `CN(Cc1cnc2nc(N)nc(N)c2n1)c1ccc(C(=O)NC(CCCCN)C(=O)O)cc1` (stereo unspecified), the IC50 in the assay with L1210 was determined as 400 nM; in the assay on L1210 ( R81), 220000 nM; on Dihydrofolate reductase it was 65 nM. In assay [1], the inhibition is under 10%.

Take `Nc1nc(N)c2nc(CNc3ccc(C(=O)N[C@@H](CCC(=O)O)C(=O)O)cc3)cnc2n1` [AMINOPTERIN]: the IC50 in the assay with L1210 ( R81) came to 84000 nM.

Turning to `NCCCC(NC(=O)c1ccc(NCc2cnc3nc(N)nc(N)c3n2)cc1)C(=O)O` (stereo unspecified), the IC50 in the assay on L1210 turned out to be 1300 nM; in the assay with L1210 ( R81), 32000 nM. Further, the affinity in assay [2] corresponds to a Ki of 150 nM.

For the molecule `CN(Cc1cnc2nc(N)nc(N)c2n1)c1ccc(C(=O)NC(CCCN)C(=O)O)cc1` (stereo unspecified), the IC50 in the assay on L1210 came to 1300 nM; with L1210 ( R81), 86000 nM; against Dihydrofolate reductase it was 160 nM. Affinity in assay [2] was put at a Ki of 20400 nM.

As for `CN(Cc1cnc2nc(N)nc(N)c2n1)c1ccc(C(=O)NC(CN)C(=O)O)cc1` (stereo unspecified), the values for the IC50 with L1210, with L1210 ( R81) and against Dihydrofolate reductase were 440 nM, 405000 nM and 180 nM, respectively. Moreover, in assay [1], the inhibition is under 10%.
